This is an account of results in paper PMC3885398, “Evaluation of the Antitumor Effects of BPR1J-340, a Potent and Selective FLT3 Inhibitor, Alone or in Combination with an HDAC Inhibitor, Vorinostat, in AML Cancer” (PLoS ONE, 2014).

SMILES strings stand for the structures.

Broadly, the inhibition is how much of the control response was suppressed. For orientation: IC50 means the concentration needed to halve the response being measured. High values mean weaker potency, low ones greater potency.

The target in one assay is KDR (VEGFR2) (Homo sapiens, UniProt P35968). In words: Invitrogen SelectScreen kinase profiling. The format is biochemical. Set-up: purchased Invitrogen SelectScreen. Particulars: 100 nM. The method, then:
(§1) The FLT3 and VEGFR1/2 Kinase-Glo kinase assays were performed as reported by our earlier study. The VEGFR3 activity analysis was conducted using the same protocol described in the VEGFR1/2 assay. The kinase inhibition profiling and inhibitory activity of FLT3-D835Y, CSF1R, and TRKA were determined by Invitrogen SelectScreen® kinase profiling service (Carlsbad, California, USA).
(§2) BPR1J-340, a urea-substituted 3-phenyl-1H-5-pyrazolylamine-based compound, was designed through chemical modification of sulfonamide series of derivatives (BPR1J-097 series) by a structure-activity relationship (SAR) study (Fig. 1), [32]. For kinase inhibition specificity screening, BPR1J-340 was tested against 59 protein kinases covering the major oncogenic kinases of human protein kinome. […] In addition, BPR1J-340 inhibited TRKA, which is associated with the growth and metastasis of breast cancers, with an IC50 value of 8 nM. Given the high similarity of the ATP binding pockets of FLT3 and the Aurora kinases, the inhibitory activity toward Aurora A and Aurora B were measured. […] Taken together, BPRJ-340 is a selective kinase inhibitor with in vitro activity against FLT3, VEGFR2, VEGFR3 and TRKA receptor tyrosine kinases.

For another assay, the target named is FLT4 (VEGFR3) (Homo sapiens, UniProt P35916). In words: Invitrogen SelectScreen kinase profiling. Format: biochemical. Set-up: purchased Invitrogen SelectScreen. To be noted: 100 nM. The method, then: as §1, §2
Assay [1] has as its system STAT5 phosphorylation at Tyr694. In words: STAT5 phosphorylation at Tyr694 in MOLM-13 cells, Western blot. The format is cell-based, human. To be noted: MOLM-13, 20 hours, Fig. 4D. The method, then: Cells were lysed in lysis buffer (50 mM Tris, pH 8.0, 150 mM NaCl, 1% Triton X-100, 0.5% sodium deoxycholate, 0.1% SDS, 1 mM sodium orthovanadate, 1 mM PMSF, and 1 mM DTT). Protein lysates were resolved by SDS-PAGE and transferred onto a polyvinylidene difluoride (PVDF) membrane (Millipore, Bedford, MA, USA). The membranes were immunoblotted with appropriate antibodies and detected using the SuperSignal reagent (Pierce, Rockford, IL, USA) followed by exposure to X-ray film.
Some histone deacetylase inhibitors (HDACi) will enhance the cytotoxic activity of FLT3 inhibitor on FLT3-ITD^+ cell via degradation of FLT3-ITD and STAT5 [24], [26], [36], [37]. To determine whether SAHA, an HDACi, can synergize with BPR1J-340 to enhance cytotoxicity in FLT3-ITD expressing cells by interfering with the FLT3-ITD and STAT5 axis, the combined effects of SAHA and BPR1J-340 on cytotoxicity were examined. The cell growth rate of MOLM-13 and MV4;11 with SAHA and BPR1J-340 combinational treatment was decreased compared with the single-drug treatment (Fig. 4A). […]
Figure 4 The effect of BPR1J-340 and SAHA versus drug combination on AML FLT3-ITD+ cells. […] (A) Viable cells were counted after staining with trypan blue dye at indicated time point (B) At 48-hours after treatment, cells were stained with FITC-labeled annexin V and propidium iodide and percentages of apoptotic cells were analyzed by flow cytometry. […]
In general terms: A western blot detects proteins with antibodies after separation by electrophoresis.

In a further assay the target is Aurora A kinase (Homo sapiens, UniProt O14965). Put plainly: Aurora A kinase inhibition. Format: biochemical. The method, then: as §2
Chain of Aurora A kinase (O14965 whole entry): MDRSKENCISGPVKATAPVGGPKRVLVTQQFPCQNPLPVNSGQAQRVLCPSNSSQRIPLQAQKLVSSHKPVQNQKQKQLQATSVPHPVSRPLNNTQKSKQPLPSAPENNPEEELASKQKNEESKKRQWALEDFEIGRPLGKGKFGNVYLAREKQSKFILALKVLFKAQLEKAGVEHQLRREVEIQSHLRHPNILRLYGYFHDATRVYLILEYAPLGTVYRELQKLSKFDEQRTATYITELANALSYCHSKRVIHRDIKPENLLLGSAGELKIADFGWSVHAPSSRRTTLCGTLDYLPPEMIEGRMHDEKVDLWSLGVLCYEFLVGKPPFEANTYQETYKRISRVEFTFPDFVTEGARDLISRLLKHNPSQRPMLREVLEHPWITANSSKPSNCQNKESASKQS

Chain of FLT4 (VEGFR3) (P35916 25-1363): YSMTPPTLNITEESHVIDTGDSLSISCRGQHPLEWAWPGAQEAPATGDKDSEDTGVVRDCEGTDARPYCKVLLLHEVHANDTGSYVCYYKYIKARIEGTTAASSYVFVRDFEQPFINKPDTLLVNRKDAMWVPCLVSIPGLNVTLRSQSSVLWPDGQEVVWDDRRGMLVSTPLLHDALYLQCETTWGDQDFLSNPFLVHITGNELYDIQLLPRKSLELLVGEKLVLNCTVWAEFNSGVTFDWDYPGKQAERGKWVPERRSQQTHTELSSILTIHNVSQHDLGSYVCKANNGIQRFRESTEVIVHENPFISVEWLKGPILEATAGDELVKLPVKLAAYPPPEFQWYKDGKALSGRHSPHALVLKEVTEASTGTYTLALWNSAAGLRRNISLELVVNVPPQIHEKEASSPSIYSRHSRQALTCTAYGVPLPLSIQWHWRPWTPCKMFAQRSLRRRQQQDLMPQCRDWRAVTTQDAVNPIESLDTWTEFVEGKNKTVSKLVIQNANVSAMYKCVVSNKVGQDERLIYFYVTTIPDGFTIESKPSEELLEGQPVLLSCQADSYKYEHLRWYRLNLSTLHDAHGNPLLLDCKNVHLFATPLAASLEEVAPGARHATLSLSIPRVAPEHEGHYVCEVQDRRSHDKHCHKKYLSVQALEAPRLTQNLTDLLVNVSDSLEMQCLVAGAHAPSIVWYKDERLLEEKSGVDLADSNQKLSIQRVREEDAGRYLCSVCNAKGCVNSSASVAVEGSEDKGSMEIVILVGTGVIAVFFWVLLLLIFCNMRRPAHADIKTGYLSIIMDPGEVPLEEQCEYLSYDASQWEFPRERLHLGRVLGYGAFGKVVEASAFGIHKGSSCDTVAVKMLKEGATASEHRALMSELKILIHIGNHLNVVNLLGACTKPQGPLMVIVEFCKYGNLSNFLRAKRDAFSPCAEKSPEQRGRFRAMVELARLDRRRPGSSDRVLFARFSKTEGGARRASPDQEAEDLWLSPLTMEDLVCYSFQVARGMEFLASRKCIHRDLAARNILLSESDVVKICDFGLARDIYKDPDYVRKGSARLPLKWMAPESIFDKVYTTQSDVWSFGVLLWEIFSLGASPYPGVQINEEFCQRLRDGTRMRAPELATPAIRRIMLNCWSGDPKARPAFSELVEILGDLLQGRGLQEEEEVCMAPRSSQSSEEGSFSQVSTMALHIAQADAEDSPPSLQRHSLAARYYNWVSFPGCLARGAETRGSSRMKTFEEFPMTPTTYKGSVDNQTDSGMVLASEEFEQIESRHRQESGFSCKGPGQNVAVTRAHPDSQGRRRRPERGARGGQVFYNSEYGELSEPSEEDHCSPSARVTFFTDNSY
Chain of KDR (VEGFR2) (P35968 20-1356): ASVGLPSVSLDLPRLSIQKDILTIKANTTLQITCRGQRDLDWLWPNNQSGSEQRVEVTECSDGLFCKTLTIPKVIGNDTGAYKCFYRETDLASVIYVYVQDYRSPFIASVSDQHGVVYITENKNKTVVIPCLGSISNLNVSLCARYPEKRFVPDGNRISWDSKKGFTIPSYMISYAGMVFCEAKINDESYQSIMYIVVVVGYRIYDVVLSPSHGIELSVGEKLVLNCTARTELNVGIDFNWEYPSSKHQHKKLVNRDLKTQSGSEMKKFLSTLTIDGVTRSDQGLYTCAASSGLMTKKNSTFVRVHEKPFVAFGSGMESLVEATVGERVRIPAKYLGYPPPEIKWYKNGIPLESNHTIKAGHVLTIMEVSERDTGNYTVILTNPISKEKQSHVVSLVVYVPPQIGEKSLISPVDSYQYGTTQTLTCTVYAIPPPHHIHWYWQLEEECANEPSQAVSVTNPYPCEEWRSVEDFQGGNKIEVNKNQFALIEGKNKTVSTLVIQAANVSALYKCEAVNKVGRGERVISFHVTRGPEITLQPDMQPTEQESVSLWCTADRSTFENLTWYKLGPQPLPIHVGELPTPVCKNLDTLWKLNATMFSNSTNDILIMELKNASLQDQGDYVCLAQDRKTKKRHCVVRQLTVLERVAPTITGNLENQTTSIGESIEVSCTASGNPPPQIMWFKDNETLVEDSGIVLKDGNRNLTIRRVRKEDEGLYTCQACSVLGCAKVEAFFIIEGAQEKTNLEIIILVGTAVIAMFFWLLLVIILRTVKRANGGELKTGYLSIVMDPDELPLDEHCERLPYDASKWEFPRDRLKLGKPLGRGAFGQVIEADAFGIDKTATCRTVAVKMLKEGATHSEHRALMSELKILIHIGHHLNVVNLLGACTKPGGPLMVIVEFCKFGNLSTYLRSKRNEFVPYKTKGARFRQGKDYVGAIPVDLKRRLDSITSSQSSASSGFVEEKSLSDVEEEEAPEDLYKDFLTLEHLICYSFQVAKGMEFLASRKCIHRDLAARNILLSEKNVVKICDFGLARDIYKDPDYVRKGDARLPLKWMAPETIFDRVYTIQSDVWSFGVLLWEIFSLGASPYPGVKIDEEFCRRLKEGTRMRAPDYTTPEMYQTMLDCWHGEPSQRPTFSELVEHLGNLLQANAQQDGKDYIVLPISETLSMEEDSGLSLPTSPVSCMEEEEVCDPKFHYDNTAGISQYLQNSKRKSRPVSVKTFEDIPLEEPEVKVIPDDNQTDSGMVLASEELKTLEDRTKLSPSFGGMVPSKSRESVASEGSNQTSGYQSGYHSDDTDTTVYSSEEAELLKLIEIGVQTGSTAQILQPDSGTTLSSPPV

With `CCc1cc(NC(=O)NCc2ccc(-c3cc(NC(=O)c4ccc(CN5CCN(C)CC5)cc4)[nH]n3)cc2)no1` [BPR1J-340, N1-(3-4-[([(5-ethyl-3-isoxazolyl)amino]carbonylamino)methyl]phenyl-1H-5-pyrazolyl)-4-[(4-methylpiperazino)methyl]benzamide], the inhibition at 0.1 µM against KDR (VEGFR2) was found to be 69%; against FLT4 (VEGFR3), 45%. Moreover, in assay [1], the “STAT5 phosphorylation at Tyr694” value was “completely block”. On Aurora A kinase, this compound returned an IC50 of 1040 nM.
